From patent publication US5627017A, “Low melting point ionizable epoxy scavengers for residual magenta couplers” (Eastman Kodak Company, priority 1995, dated 1997)

Key:
[1] = logP (logarithm of the octanol/water partition coefficient); assay type: physicochemical
Text: Hydrophobic photographic additives are conveniently incorporated in a hydrophilic colloid layer of a photographic element by dissolving the hydrophobic additive in an organic solvent and then dispersing the organic solution in an aqueous solution to form a homogenized dispersion. […] The low hydrophobicity is essential to achieve efficient post-process migration of these compounds from the adjacent non-imaging layers into the magenta imaging layer. The combination of low hydrophobicity and high melting point makes it difficult to prepare stable dispersions of these compounds by homogenization in an aqueous solution even if relatively large amounts of water-immiscible organic solvent is used to dissolve the compounds. The exemplified compounds are accordingly dispersed in the examples of U.S. Ser. No. 08/255,512 by a solid particle dispersion process. In this method size reduction of the epoxy compound is achieved by attrition with media such as zirconia beads instead of by shearing action on a liquid solution. The solid particle dispersion process is relatively inefficient compared to homogenization and often requires several days of grinding in order to achieve the desired level of size reduction.

[2] = Dispersion stability in constant temperature bath at 45 °C; assay type: physicochemical; details: 3.0 g epoxide with 1.0 g tri(2-ethylhexyl) phosphate in gelatin/Alkanol XC, E1 disintegrated with significant settling, SI-4 no evidence of settling or macroscopic coagulation
Protocol: 3.0 grams of E1 was combined with 1.0 gram of the water-immiscible organic solvent tri(2-ethylhexyl) phosphate. The mixture was heated until the oil phase was homogeneous. 26.0 grams of a 12% w/w solution of Type IV gelatin in water was combined with 43.8 grams of water and 4.0 grams of Alkanol XC to constitute the aqueous phase. The aqueous phase was maintained at 70° C. The oil phase was combined with the aqueous phase while stirring. The mixture was then passed twice through the microfluidizer at a pressure of 10,000 psi to obtain the dispersion.
Both dispersions were placed in a constant temperature bath set at 45° C.

Compound	logP [1]	time at which dispersion disintegrated / showed settling or macroscopic coagulation [2]
O=C(CCCCCCCCC1CO1)Oc1ccc(NS(=O)(=O)c2ccc(F)cc2F)cc1 (stereo not shown) [E1]	4.5	6 h
O=C(CCCCCCCCC1CO1)Oc1ccc(NS(=O)(=O)c2ccccc2)cc1 (stereo not shown) [SI-4]	4.3	> 12 h
